pIC50: −log10 of the molar value. Where two headings read alike, the source gives them in different places. Peptide text beside a SMILES is read from it. * marks the point of attachment. Biotin = O=C1N[C@H]2[C@H](CS[C@H]2CCCCC(=O)*)N1; Ahx = NCCCCCC(=O)O
Tests used:
HSV-1 KOS mutant hrR3 [1] = test: LacZ+ virus (hrR3) entry assay with pre-adsorbed virus (entry block); type: cell-based; conditions: 33° C.; read-out: Entry Block IC50
Procedure: LacZ^+ virus (hrR3) entry assay: Confluent Vero cell cultures in 96-well microtiter plates were switched to Hepes-buffered serum-free DMEM, cooled on ice to 4° C. for 30 min, and infected with hrR3 for 1 hour at 4° C. in 40 μL of medium. Unattached virus was removed by rinsing with ice-cold medium. Treatments with antiviral peptide SEQ ID NO:1, referred to as EB, or a control peptide which comprised the RRKK tetra-peptide (SEQ ID NO:16) attached to a scrambled version of the membrane transiting peptide RRKKLAALPLVLAAPLAVLA (SEQ ID NO:17) (referred to as EBX), or mock-treatments with peptide-free medium were carried out in serum-free DMEM as indicated. Virus entry was initiated by transferring cultures to 37° C. To inactivate any remaining extracellular virus, cultures were rinsed with PBS and exposed to low pH citrate buffer (40 mM citric acid, 10 mM KCl, 135 mM NaCl, pH 3.0, according to Highlander et al., J. Virol. 61:3356 (1987), for 1 min at 23° C. The citrate was rinsed off with PBS and cultures were maintained in serum-supplemented DMEM until they were fixed with 0.5% gluteraldehyde in 5×PBS for 30 min at 23° C., stained for β-galactosidase activity for 1 hour or overnight at 23° C. with X-gal (Fisher Biotech; BP1615-1) in 1×PBS containing […], 1.3 mM K4Fe(CN)6, and 1.3 mM K3Fe(CN)6, and scored for the presence of blue […] cells.
In these studies, the hrR3 virus was pre-adsorbed to cells for 1 hour at 4° C. before ice cold 25 μM EB or EBX were added in serum-free DMEM. After an additional 1 hour at 4° C., cultures were shifted to 37° C. to initiate virus entry. At 15 min intervals following the temperature shift, any virus remaining outside the cells was inactivated by washing the cultures with low pH citrate buffer. Cultures were then rinsed and returned to peptide-free serum-supplemented DMEM until they were fixed and stained for β-galactosidase 8 hours after the temperature shift.
(§1) Two assays were used to assess the ability of the TAT peptides to inhibit infection of Vero cells with the hrR3 virus. In both assays, the virus was preadsorbed to cells at 4° C. and entry was initiated in the presence of peptide by shifting the cultures to a permissive temperature (30-37° C.). One hour later, the peptide was rinsed off. The entry blocking activity was measured in half of the cultures, in which any extracellular virus remaining after the peptide treatment was inactivated with low pH citrate buffer. The rest of the cultures were exposed to PBS instead of citrate buffer and used to measure virus inactivation. Virus inactivation depended on persistent effects of the peptide lasting for a period of eight hours. At the end of that period, all cultures were fixed and infected cells were detected by staining with X-gal.
(§2) Virus (m.o.i.=0.025) was preadsorbed to Vero cells for 1 h at 4° C. before cultures were exposed to TAT-C (FIG. 15A), bTAT-9X (FIG. 15B), or n50,51TAT-C (FIGS. 15C, 15D) for 1 h at 33 (FIGS. 15A, 15B), 31 (FIG. 15C), or 37° C. (FIG. 15D). […] Inhibition of entry was measured in the citrate-treated cultures, in which any remaining external virus was inactivated immediately following exposure to peptide (●). Persistent virus inactivation lasting, at least in part, for the 8 h period following exposure to peptide, was measured in the PBS-treated cultures (◯). The IC50s measured in these experiments are included in Table 5.

HSV-1 KOS mutant hrR3 [2] = test: Inactivation of pre-adsorbed virus (virus inactivation); type: cell-based; conditions: 33° C.; read-out: Virus Inactivation IC50 (pre-adsorbed virus)
Procedure: as §1, §2

HSV-1 KOS mutant hrR3 [3] = conditions: read-out: post-entry effects IC50; peptide added after citrate treatment, 8 h
in vitro = conditions: African green monkey

Q: With `CC(C)C[C@H](NC(=O)[C@H](CC(=O)O)NC(=O)[C@H](CC(N)=O)NC(=O)[C@@H](NC(=O)[C@@H](NC(=O)[C@H](C)NC(=O)CNC(=O)[C@H](C)NC(=O)[C@H](Cc1ccc(O)cc1)NC(=O)CNC(=O)[C@@H]1CCCN1C(=O)[C@H](CCCNC(=N)N)NC(=O)[C@H](CCCNC(=N)N)NC(=O)[C@H](CCCNC(=N)N)NC(=O)[C@H](CCC(N)=O)NC(=O)[C@H](CCCNC(=N)N)NC(=O)[C@H](CCCNC(=N)N)NC(=O)[C@H](CCCCN)NC(=O)[C@H](CCCCN)NC(=O)[C@H](CCCNC(=N)N)NC(=O)CNC(=O)[C@H](Cc1ccc(O)cc1)NC(=O)CCCCCNC(=O)CCCC[C@@H]1SC[C@@H]2NC(=O)N[C@@H]21)C(C)C)C(C)C)C(=O)O` [bTAT-9, b - YGRKKRRQRRR-9] ({Biotin-Ahx}-YGRKKRRQRRRPGYAGAVVNDL-OH) as the molecule, how does the pIC50 (HSV-1 KOS mutant hrR3 [1]) read?
A: 5.68

Q: What about the pIC50 (HSV-1 KOS mutant hrR3 [2]) of the same molecule?
A: 3.96

Q: And the pIC50 (HSV-1 KOS mutant hrR3 [3])?
A: 3.68

Q: And the pIC50 (in vitro)?
A: ~3.70

Q: With `CC(C)C[C@H](NC(=O)CCCCCNC(=O)CCCC[C@@H]1SC[C@@H]2NC(=O)N[C@@H]21)C(=O)N[C@H](C(=O)N[C@@H](CC(C)C)C(=O)N[C@@H](C)C(=O)N[C@@H](C)C(=O)N1CCC[C@H]1C(=O)N[C@@H](CC(C)C)C(=O)N[C@@H](C)C(=O)N[C@H](C(=O)N[C@@H](CC(C)C)C(=O)N[C@@H](C)C(=O)N1CCC[C@H]1C(=O)NCC(=O)N[C@@H](CCCNC(=N)N)C(=O)N[C@@H](CCCCN)C(=O)N[C@@H](CCCCN)C(=O)N[C@@H](CCCNC(=N)N)C(=O)N[C@@H](CCCNC(=N)N)C(=O)N[C@@H](CCC(N)=O)C(=O)N[C@@H](CCCNC(=N)N)C(=O)N[C@@H](CCCNC(=N)N)C(=O)N[C@@H](CCCNC(=N)N)C(=O)N[C@@H](CS)C(N)=O)C(C)C)C(C)C` [b12TAT-C] ({Biotin-Ahx}-LVLAAPLAVLAPGRKKRRQRRRC-NH2) as the molecule, how does the pIC50 (HSV-1 KOS mutant hrR3 [1]) read?
A: 5.48

Q: What about the pIC50 (HSV-1 KOS mutant hrR3 [2]) of the same molecule?
A: 4.96

Q: And the pIC50 (HSV-1 KOS mutant hrR3 [3])?
A: 4.00

Q: And the pIC50 (in vitro)?
A: ~3.70
